Values of other authors as cited in patent publication US20070259951A1, “Compounds, Compositions and Methods” (SMITHKLINE BEECHAM CORPORATION, priority 2003, published 2007).

system: A549 cells; settings: data provided by National Cancer Institute

Compared with `O=c1[nH]cc(F)c(=O)[nH]1` [5-fluorouracil], `COc1cccc2c1C(=O)c1c(O)c3c(c(O)c1C2=O)C[C@@](O)(C(=O)CO)C[C@@H]3O[C@H]1C[C@H](N)[C@H](O)[C@H](C)O1` [doxorubicin] is 16-fold lower in GI50: 1000 nM for the first, 63 nM for the second.

Compared with `NC(=O)NO` [hydroxyurea], `CC(=O)O[C@H]1C(=O)[C@@]2(C)[C@H]([C@H](OC(=O)c3ccccc3)[C@]3(O)C[C@H](OC(=O)[C@H](O)[C@@H](NC(=O)c4ccccc4)c4ccccc4)C(C)=C1C3(C)C)[C@]1(OC(C)=O)CO[C@@H]1C[C@@H]2O` [paclitaxel] is far lower in GI50: 500000 nM for the first, 4 nM for the second.
